Assay results reported in PubChem BioAssay (NCI).
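A five-concentration, 48-hour dose response in 96-well plates underlies each endpoint, interpolated linearly between surrounding concentrations. Abbreviation: GI50, concentration required for 50% inhibition of growth. TGI: total growth inhibition.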

Tests used:
Test in all cases: growth of human tumour cells (NCI), 48 h
[1] = test system: SR leukemia
[2] = test system: CAKI-1 renal
[3] = test system: SK-MEL-2 melanoma
[4] = test system: SF-539 CNS
[5] = test system: SNB-19 CNS
[6] = test system: OVCAR-8 ovarian
[7] = test system: HL-60(TB) leukemia
[8] = test system: SNB-75 CNS
[9] = test system: NCI-H460 lung
[10] = test system: EKVX NSCLC

Structure (SMILES) | GI50 [1] [µM] | TGI [1] [µM] | GI50 [2] [µM] | TGI [2] [µM] | GI50 [3] [µM] | TGI [3] [µM] | GI50 [4] [µM] | TGI [4] [µM] | GI50 [5] [µM] | TGI [5] [µM] | GI50 [6] [µM] | TGI [6] [µM] | GI50 [7] [µM] | TGI [7] [µM] | GI50 [8] [µM] | TGI [8] [µM] | GI50 [9] [µM] | TGI [9] [µM] | GI50 [10] [µM] | TGI [10] [µM]
CC(C)(C)C[C@H]1NC(C(=O)NCC[C@H](O)CO)[C@H](c2cccc(Cl)c2)[C@@]12C(=O)Nc1cc(Cl)c(F)cc12 (some centres undefined) | 1.83 | 10.1 | 3.84 | 18.1 | 14.4 | 28.6 | 15.5 | 31.8 | 21.1 | 59.8 | 18.6 | 39.1 | 14.7 | 40.1 | 14.1 | 29.9 | 2.45 | 14.6 | 13.3 | 29.1
C[N+](C)(C)CC(=O)N/N=C(/Cc1nc2c3c(ccc2[nH]c1=O)C(=O)c1ccccc1C3=O)C(=O)Nc1ccc(Cl)c(Cl)c1 |  | > 100 |  | 87 |  | > 100 |  | > 100 |  |  |  | > 100 |  | > 100 |  |  |  | > 100 |  | > 100
Cc1ccncc1.[O]=[Ge].[O]=[Ge].[O]=[Ge].[O]=[Ge].[O]=[Ge].[O]=[Ge][OH].[O]=[Ge][OH] | > 100 | > 100 | > 100 | > 100 | > 100 | > 100 | > 100 | > 100 | > 100 | > 100 | > 100 | > 100 | > 100 | > 100 | > 100 | > 100 | > 100 | > 100 | > 100 | > 100
CN(CCCN)CCCNc1nc2ccccc2c2[nH]c3ccccc3c12 | 0.381 | 2.25 | 0.259 | 0.754 | 0.306 | 0.835 | 0.324 | 0.943 | 0.229 | 0.943 | 0.0825 | 0.496 | 0.138 | 0.59 | 0.272 | 0.943 | 0.304 | 1.17 | 1.44 | 8.2
CCN1C(=O)N(CC)C2C1NN=c1s/c(=C\c3cccnc3)c(=O)n12 (centres undefined) | 0.132 | > 100 | 0.346 | > 100 | > 100 | > 100 | 0.319 | 2.51 | 0.676 | > 100 | 0.823 | > 100 | 0.395 |  | 0.116 |  | 0.4 | > 100 | 0.659 | > 100
Cc1occc1C(=S)Nc1ccc(Cl)c(COC(C)(C)C)c1 |  | 41.8 |  | 38.9 |  | 33.1 |  | 31.1 |  | 48.2 |  | 31.5 |  | 45 |  |  |  | 31 |  | 37.1
Cc1c(C(=O)/C=C/c2csc3ccccc23)[n+](=O)c2ccccc2n1[O-] | 1.79 | 8.69 | 1.42 | 3.7 | 2.06 | 4.23 | 1.59 | 3.12 | 2.08 | 4.77 | 2.37 | 6.31 | 1.78 | 5.19 | 1.38 | 3.34 | 1.41 | 2.71 | 1.32 | 3.64
CC(C)(C)OC(=O)C#CC[C@H]1CCCC1/C=C/C(O)=C1/C(=O)NC(CCCNC(=O)OC(C)(C)C)C1=O (some centres undefined) |  | > 100 |  | > 100 |  | 34.4 |  | 83.1 |  | 88.5 |  | 31.6 |  | 73.7 |  | > 100 |  | 61.6 |  | > 100
CCN(CC)CCn1ccc(=O)c2cc3c(=O)ccn(CCN(CC)CC)c3c(C)c21 |  | 3.94 |  | 18.3 |  | 24.5 |  | 24.2 |  | 18.3 |  | 15.5 |  | 3.54 |  | 22.7 |  | 3.47 |  | 18.8
CC1(C)SC2C(NC(=O)C(N)c3ccccc3)C(=O)N2C1C(=O)O (centres undefined) |  | > 100 |  | > 100 |  | > 100 |  | > 100 |  | > 100 |  | > 100 |  | > 100 |  | > 100 |  | > 100 |  | > 100
C=C1C(=O)O[C@H]2[C@H]1CC/C(COC(=O)NCc1ccccc1OC)=C\CC[C@@]1(C)O[C@@H]21 | 0.679 | 5.19 | 1.38 | 2.77 | 1.71 | 3.89 | 1.53 | 3.04 | 1.57 | 3.47 | 2.45 | 8.38 | 1.61 | 5.77 | 2.44 | 13.2 | 3.73 | 14.6 | 1.98 | 6.39
COc1cccc(/C=C/C(=O)c2cccc(Nc3nc(Nc4ccccc4)nc(Nc4ccccc4)n3)c2)c1 | 1.89 | 9.13 | > 22.4 | > 60.8 | > 33.4 | > 100 | 15.6 | 34.4 | > 56.9 | > 100 | 9.91 | > 100 | 10.5 | 43.6 | 11.8 | > 94.8 | 9.01 | > 61.8 | > 20.2 | > 78.6
CCN(CC)c1ccc(C(=C2C=CC(=[N+](CC)Cc3cccc(S(=O)(=O)O)c3)C=C2)c2ccc(N(CC)Cc3cccc(S(=O)(=O)O)c3)cc2)cc1 |  | 0.643 | 24 | > 100 | 10.5 | > 92.2 | 3.57 | 23.3 | 14.2 | > 100 | 4.8 | > 100 | 4.38 | 17.4 | 2.75 | 17.3 | 3.93 | 39.1 | 6.82 | > 100
CC(=O)NNc1nc(C)c(C(=O)NNC(=O)C(=O)Nc2ccccc2C#N)s1 |  | > 100 |  | > 100 |  | > 100 |  | > 100 |  | > 100 |  | > 100 |  | > 100 |  | > 100 |  | > 100 |  | > 100
